Experimental data: patent US20230302031A1, “Modulators Of Purinergic Receptors and Related Immune Checkpoint For Treating Acute Respiratory Distress Syndrome” (priority 2020, published 2023)
Read-outs that look alike come from different tables or passages of the source.

Experiments:
SARS-CoV-2 [1] = type: cell-based; conditions: Vero E6, 72 hours infection, MOI 1-2, indicated concentrations, MTT
SARS-CoV-2 [2] = type: cell-based; conditions: FIG. 7K; for intracellular expression of Spike: Vero E6, 24 hours, 50 μM PPADS, 100 μM OxATP, 100 μM BzATP; for ACE2 expression in response to SARS-CoV-2 infection: western blot
SARS-CoV-2 [3] = test: SARS-CoV-2 replication in Vero E6 cells (RdRp and E mRNA, quantitative RT-PCR); type: cell-based; conditions: 500 μM UTP, 100 μM Diquafosol, 5 μM Denufosol; for amount of RdRp and E mRNA (viral replication): Vero E6, 16 and 24 hours of infection, 50 μM PPADS, 100 μM BzATP, FIG. 2; for replication of SARS-CoV-2 and/or associated cytopathogenic effects: Vero E6, RdRp and E mRNA, Spike-positive cells, viability, FIG. 7D, 7E, 7I-7K, 12A, 12B
ACE2 [4] = type: cell-based; conditions: ACE2-A549, 24 hours; same concentrations; FIG. 14B
Vero E6 cells = conditions: Vero E6, 72 hours, MTT; PPADS and OxATP at 100 μM; BzATP indicated concentrations
SARS-CoV-2 [5] = type: cell-based; conditions: Vero E6, 24 hours, 50 μM PPADS, 100 μM OxATP
ACE2-A549 cells = conditions: ACE2-A549, 72 hours, MTT; PPADS and OxATP at 100 μM; BzATP indicated concentrations
ACE2 [6] = type: cell-based, African green monkey; conditions: Vero E6, 24 hours; 500 μM UTP, 100 μM Diquafosol, 5 μM Denufosol, 50 μM PPADS, 100 μM OxATP, 100 μM BzATP; FIG. 14A
[7] = system: PMA-treated THP1 macrophages; test: IL-1β release from LPS+ATP-stimulated PMA-THP1 macrophages (western blot/ELISA); type: cell-based, human; conditions: for IL-1β release: 100 μM compound, 10 ng/mL LPS 3 hours + 5 mM ATP 6 hours, FIG. 6E, 6I
Experimental: (§1) Human THP-1 cells were cultured in RPMI 1640 media, supplemented with 10% FBS and differentiated by treatment for 3 hours with 100 nM phorbol-12-myristate-13-acetate (PMA, Invivogen). After 2 days, macrophage THP-1 cells were stimulated first 3 hours with ultrapure LPS from E. coli (10 ng/ml, LPS) and then stimulated for 6 hours with ATP (5 mM, Sigma) or treated with 50 ng or 20 ng of IFNg during 24 or 12 hours as indicated. Then, supernatants and cells were collected for western blot analysis.
(§2) Cells or supernatant were lysed in appropriated buffer (250 mM NaCl, 0.1% NP-40, 5 mM EDTA, 10 mM Na3VO4, 10 mM NaF, 5 mM DTT, 3 mM Na4P2O7, 1 mM EGTA, 10 mM Glycerol phosphate, 10 mM Tris-Hcl (pH=7.5) and the protease and phosphatase inhibitors (Roche)). Equal amount of supernatant or 10-40 μg of protein extracts were run on 4-12% or 10% SDS-PAGE and transferred at 4° C. onto a nitrocellulose membrane (0.2 Micron). After incubation for 2 hours at room temperature with 5% nonfat milk or BSA (Bovine Serum Albumine) in Tris-buffered saline and 0.1% Tween 20 (TBS-Tween), membranes were incubated with primary antibody at 4° C. overnight. […] The primary antibodies against. […] Western blots shown are representative of at least of three independent experiments.
Plasma serum from P2y2^+/+ and P2y2^−/− mice and supernatants harvested from PMA-stimulated THP1 macrophages that were depleted or not for P2Y2 or NLRP3, and/or stimulated with 10 ng/mL LPS during 3 hours and 5 mM ATP during 6 hours or with 20 ng/mL IFNγ, in presence or in absence of 100 μM Suramin, 100 μM OxATP, 100 μM Kaempferol or 100 μM Diquafosol at indicated times were analyzed using western blot or ELISA for IL-1β (Ebioscience) and IL-10 (BD) according to the manufacturers' instructions.

SARS-CoV-2 [8] = test: SARS-CoV-2 replication in ACE2-A549 cells (RdRp and E mRNA, Spike expression); type: cell-based; conditions: ACE2-A549, 48 hours; 500 μM UTP, 100 μM Diquafosol, 5 μM Denufosol; FIG. 7F-H
[9] = system: PMA-treated THP1 macrophages; test: IRF5 expression in IFNγ-stimulated PMA-THP1 macrophages (western blot); type: cell-based, human
Experimental: as §1, §2
Total cellular proteins were extracted and lysed in appropriated buffer containing 250 mM NaCl, 0.1% NP-40, 5 mM EDTA. 10 mM Na3VO4, 10 mM NaF, 5 mM DTT, 3 mM Na4P2O7, 1 mM EGTA, 10 mM Glycerol phosphate, 10 mM Tris-HCl (pH=7.5) and the protease and phosphatase inhibitors (Roche)). Then, 10-40 μg of protein extracts were run on 4-12% or 12% SDS-PAGE and transferred at 4° C. onto a nitrocellulose membrane (0.2 Micron). After 2 hours saturation at room temperature with 5% nonfat milk or BSA (Bovine Serum Albumin) in Tris-buffered saline and 0.1% Tween 20 (TBS-Tween), nitrocellulose membranes were incubated with primary antibody at 4° C. overnight. […] The primary antibodies against P2Y2 (#APR-010) and P2X7 (#APR-004) were obtained from Alomone laboratories. […]

[10] = system: Bleomycin-induced lung inflammation; test: Mouse model of bleomycin-induced lung inflammation; type: in vivo, C57BL/6 mice; conditions: 300 μg intraperitoneally every 3 days
P2Y2-NLRP3 interaction = target: T1, P2Y2-NLRP3 interaction (Homo sapiens, UniProt P41231); test: P2Y2-NLRP3 proximity ligation assay in PMA-primed THP1; type: cell-based; conditions: 100 μM, 96 hours; FIG. 10A
T1 construct: Frequency of P2Y2-NLRP3 PLA+ cells detected after treatment of PMA-primed THP1 with 100 μM AR-C118925XX; endogenous in cells; host or cells: PMA-primed THP1 macrophages (ATCC)
T1 sequence (P41231 whole entry): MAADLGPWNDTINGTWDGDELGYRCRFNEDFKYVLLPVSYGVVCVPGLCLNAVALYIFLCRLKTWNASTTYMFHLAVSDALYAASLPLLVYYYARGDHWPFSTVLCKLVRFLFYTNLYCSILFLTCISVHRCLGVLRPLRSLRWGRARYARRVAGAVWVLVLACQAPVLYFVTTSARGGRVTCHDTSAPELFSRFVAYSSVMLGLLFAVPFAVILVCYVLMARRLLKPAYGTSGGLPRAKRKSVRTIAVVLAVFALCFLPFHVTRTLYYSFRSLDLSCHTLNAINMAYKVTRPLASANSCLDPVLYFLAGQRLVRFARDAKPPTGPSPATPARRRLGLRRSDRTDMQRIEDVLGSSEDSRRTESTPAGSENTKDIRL

Row | Compound | cytopathogenicity / cytopathogenic effects of SARS-CoV-2 (SARS-CoV-2 [1]) | intracellular expression of Spike (SARS-CoV-2 [2]) | amount of RdRp and E mRNA (viral replication) (SARS-CoV-2 [3]) | ACE2 membrane expression (ACE2 [4]) | viability of uninfected cells (Vero E6 cells) | viability of uninfected cells (ACE2-A549 cells) | ACE2 membrane expression (ACE2 [6]) | IL-1β release [7] | ACE2 expression in response to SARS-CoV-2 infection (SARS-CoV-2 [2]) | replication of SARS-CoV-2 and/or associated cytopathogenic effects (SARS-CoV-2 [3]) | replication of SARS-CoV-2 and/or associated cytopathogenic effects (SARS-CoV-2 [8]) | further results
1 | Cc1nc(N=Nc2ccc(S(=O)(=O)O)cc2S(=O)(=O)O)c(COP(=O)(O)O)c(C=O)c1O [PPADS, pyridoxal-phosphate-6-azopheny-2′,4′-disulfonate] | reduced | reduced | repressed RdRp and E mRNA expression | did not change | partially affected viability | partially affected viability | did not change | – | – | – | – | frequency of Spike-positive cells (SARS-CoV-2 [5]): reduced the frequency of Spike-positive cells
2 | O=c1ccn([C@@H]2O[C@H](COP(=O)(O)OP(=O)(O)OP(=O)(O)OP(=O)(O)OC[C@H]3O[C@@H](n4ccc(=O)[nH]c4=O)[C@H](O)[C@@H]3O)[C@@H](O)[C@H]2O)c(=O)[nH]1 [Diquafosol] | exhibited inhibitory effects on cytopathogenicity | – | strongly reduced the amount of RdRp and E mRNA | did not change | – | – | did not change | impaired IL-1β release | repressed ACE2 down regulation | strongly blocked the replication of SARS-CoV-2 and/or reduced associated cytopathogenic effects | strongly blocked the replication of SARS-CoV-2 and/or reduced associated cytopathogenic effects | release of IL-1β in supernatant ([7]; indicated concentrations, 12 hours, LPS+ATP, FIG. 1B): impaired the release of IL-1β; IFNγ-mediated increase expression of IRF5 ([9]; PMA-THP1 macrophages, FIG. 6P): impaired IFNγ-mediated increase expression of IFN regulatory factor 5 (IRF5); IRF5 expression ([9]; indicated concentrations, 20 ng IFNγ 12 hours, FIG. 1D): confirmed; Bleomycin-induced lung inflammation ([10]; 50 UI bleomycin intratracheal, FIG. 17): abolishes Bleomycin-induced lung inflammation; lung lesions (CT scan) ([10]; day 20, FIG. 17A): reduces lung lesions induced by bleomycin treatment
3 | Nc1ncnc2c1ncn2[C@@H](C=O)O[C@@H](C=O)COP(=O)(O)OP(=O)(O)OP(=O)(O)O [OxATP, oxidized ATP] | reduced | reduced | – | did not change | partially affected viability | partially affected viability | did not change | reduced IL-1β release | repressed ACE2 down regulation | – | – | frequency of Spike-positive cells (SARS-CoV-2 [5]): reduced the frequency of Spike-positive cells
4 | 2′(3′)-O-(4-Benzoylbenzoyl) adenosine 5′-triphosphate [BzATP] | – | increase of intracellular Spike expression levels | strongly enhanced viral replication | did not change | did not show a significant impact | did not show a significant impact | did not change | – | reduces ACE2 expression levels | – | – | entry of SARS-CoV2 into host cells (SARS-CoV-2 [2]; Vero E6): significantly increased the entry of SARS-CoV2 into host cells
5 | Nc1ccn([C@H]2C[C@H](O)[C@@H](COP(=O)(O)OP(=O)(O)OP(=O)(O)OP(=O)(O)OC[C@H]3O[C@@H](n4ccc(=O)[nH]c4=O)[C@H](O)[C@@H]3O)O2)c(=O)n1 [Denufosol] | exhibited inhibitory effects on cytopathogenicity | – | strongly reduced the amount of RdRp and E mRNA | did not change | – | – | did not change | – | – | strongly blocked the replication of SARS-CoV-2 and/or reduced associated cytopathogenic effects | strongly blocked the replication of SARS-CoV-2 and/or reduced associated cytopathogenic effects | –
6 | Cc1ccc(C(=O)Nc2ccc(S(=O)(=O)O)c3cc(S(=O)(=O)O)cc(S(=O)(=O)O)c23)cc1NC(=O)c1cccc(NC(=O)Nc2cccc(C(=O)Nc3cc(C(=O)Nc4ccc(S(=O)(=O)O)c5cc(S(=O)(=O)O)cc(S(=O)(=O)O)c45)ccc3C)c2)c1 [Suramin] | – | – | – | – | – | – | – | increased IL-1β release | – | – | – | –
7 | O=c1ccn([C@@H]2O[C@H](COP(=O)(O)OP(=O)(O)OP(=O)(O)OP(=O)(O)Oc3ccccc3)[C@@H](O)[C@H]2O)c(=O)[nH]1 [MRS2768] | – | – | – | – | – | – | – | – | – | – | – | release of IL-1β in supernatant ([7]; 50 μM, 1 hour pretreatment, 10 ng/ml LPS 3 hours + 5 mM ATP 6 hours, FIG. 1A): strongly inhibited the release of IL-1β
8 | Cc1ccc2c(c1)C=Cc1cc(C)ccc1C2c1cn(Cc2ccc(C(=O)Nc3nn[nH]n3)o2)c(=O)[nH]c1=S [AR-C118925XX] | – | – | – | – | – | – | – | – | – | – | – | P2Y2-NLRP3 interaction (frequency of PLA+ cells) (P2Y2-NLRP3 interaction): enhanced the P2Y2-NLRP3 interaction
9 | O=c1ccn([C@@H]2O[C@H](COP(=O)(O)OP(=O)(O)OP(=O)(O)O)[C@@H](O)[C@H]2O)c(=O)[nH]1 [UTP, Uridine 5′-triphosphate] | exhibited inhibitory effects on cytopathogenicity | – | strongly reduced the amount of RdRp and E mRNA | did not change | – | – | did not change | – | repressed ACE2 down regulation | strongly blocked the replication of SARS-CoV-2 and/or reduced associated cytopathogenic effects | strongly blocked the replication of SARS-CoV-2 and/or reduced associated cytopathogenic effects | IRF5 expression ([9]; 10 and 100 μM, 50 ng IFNγ 24 hours, FIG. 1C): decrease of IRFS expression
